One data set has as its system HCT-116 cells. As to the kind of experiment: MTT cytotoxicity assay, HCT-116. The class given is cell-based. The note with it: Homo sapiens, incubation time 24 h, mean ± SD (n = 3).
Another data set deals with MCF-7 cells. Description: MTT cytotoxicity assay, MCF-7. The class given is cell-based. Conditions: Homo sapiens, MCF7, incubation time 72 h, mean ± SD (n = 3). How it is done: In vitro cytotoxicity studies of the obtained building blocks and glycoconjugates were carried out on cell lines characterized by the high expression of GLUT transporters and the strongly changed glucose metabolism (strong Warburg effect). […] Cytotoxicity was evaluated using the MTT assay.
The human cell line MCF-7 was obtained from collections at the Maria Sklodowska-Curie Memorial Cancer Center and Institute of Oncology, branch in Gliwice, Poland. […] The culture media were purchased from EuroClone and HyClone. Fetal bovine serum (FBS) was delivered by EURx, Poland, and Antibiotic Antimycotic Solution (100×) by Sigma-Aldrich, Germany. The cells were cultured under standard conditions at 37 °C in a humidified atmosphere at 5% CO2.
The viability of the cells was determined using an MTT (3-[4,5–dimethylthiazol-2-yl]-2,5-diphenyltetrazolium bromide) test (Sigma-Aldrich). Stock solutions of tested compounds were prepared in DMSO and diluted with the appropriate volumes of the growth medium directly before the experiment. […] The cell cultures were incubated for 24 h at 37 °C in a humidified atmosphere of 5% CO2. Then, the culture medium was removed, replaced with the solution of the tested compounds in medium with varying concentrations, and incubated for further 24 h or 72 h. After that, the medium was removed, and the MTT solution (50 µL, 0.5 mg/mL in PBS) was added. After 3 h of incubation, the MTT solution was removed, and the precipitated formazan was dissolved in DMSO. Finally, the absorbance at the 570 nm wavelength was measured spectrophotometrically with the plate reader. The experiment was conducted in at least three independent iterations with four technical repetitions. The IC50 values were calculated using CalcuSyn software (version 2.0, Biosoft, Cambridge, UK).
Background: Tetrazolium assays rely on reduction of a dye to a coloured formazan, in cell work by metabolically active cells.

For data set [1], the target named is T1, β-galactosidase from Aspergillus oryzae (Aspergillus oryzae, UniProt Q2UCU3).
T1 construct: purchased Sigma-Aldrich G5160
T1 sequence (Q2UCU3 19-1005): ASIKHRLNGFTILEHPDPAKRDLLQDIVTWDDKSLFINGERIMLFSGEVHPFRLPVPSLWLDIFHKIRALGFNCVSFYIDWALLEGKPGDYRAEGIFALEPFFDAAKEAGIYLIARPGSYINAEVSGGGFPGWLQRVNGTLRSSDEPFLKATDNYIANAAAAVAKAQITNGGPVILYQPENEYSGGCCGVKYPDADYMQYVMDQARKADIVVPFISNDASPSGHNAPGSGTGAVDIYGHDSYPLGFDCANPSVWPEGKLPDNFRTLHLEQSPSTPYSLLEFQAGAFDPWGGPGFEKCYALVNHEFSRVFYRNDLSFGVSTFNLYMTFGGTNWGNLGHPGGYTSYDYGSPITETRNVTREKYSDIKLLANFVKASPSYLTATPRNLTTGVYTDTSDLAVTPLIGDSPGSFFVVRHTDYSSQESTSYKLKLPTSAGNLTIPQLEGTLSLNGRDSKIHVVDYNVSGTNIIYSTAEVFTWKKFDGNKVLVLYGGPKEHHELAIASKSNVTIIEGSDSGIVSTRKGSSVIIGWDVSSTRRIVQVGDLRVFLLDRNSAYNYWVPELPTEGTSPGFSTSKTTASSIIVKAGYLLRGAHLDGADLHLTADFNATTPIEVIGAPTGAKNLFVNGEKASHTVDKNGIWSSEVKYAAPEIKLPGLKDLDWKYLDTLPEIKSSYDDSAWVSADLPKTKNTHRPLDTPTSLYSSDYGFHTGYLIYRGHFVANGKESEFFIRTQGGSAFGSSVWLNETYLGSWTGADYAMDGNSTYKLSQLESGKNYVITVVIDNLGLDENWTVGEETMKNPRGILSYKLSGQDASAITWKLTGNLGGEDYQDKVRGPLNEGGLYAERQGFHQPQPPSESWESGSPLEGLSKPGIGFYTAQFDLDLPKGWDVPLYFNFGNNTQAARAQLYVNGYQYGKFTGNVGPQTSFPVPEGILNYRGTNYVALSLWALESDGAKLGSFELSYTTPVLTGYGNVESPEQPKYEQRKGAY
Description: Glycoconjugate stability under the action of β-galactosidase (hydrolysis followed by TLC). Type of data set: in vitro ADME. Conditions: 0.089 unit enzyme, 5 mM substrate, phosphate-citrate buffer pH 4.5, 30 °C, TLC at 10 min to 24 h. As for the experimental part:
As part of the research, the effect of introducing a sulfur atom into the anomeric position of sugar was assessed. […] This was particularly evident for the 8-HQ derivatives 51 and 52, for which the cytotoxic activity was about twice as high as that of their structural counterparts with an anomeric oxygen atom (Figure 3). Unfortunately, an increase in cytotoxicity for glycoconjugates containing anomeric sulfur was observed, both to neoplastic cells and to healthy cells. […] In order to verify this assumption, two galactoconjugates 56 and 64 (being the deprotected counterparts of galactoconjugates 52 and 60) and their two analogs with anomeric oxygen were chosen and subjected to hydrolysis reactions using β-galactosidase from Aspergillus oryzae.
8-Hydroxyquinoline Glycoconjugates Containing
Sulfur at the Sugar Anomeric Position - Synthesis and Preliminary Evaluation of Their Cytotoxicity […]
The following reagents were pipetted into a test tube: 0.4 mL of 20 mM Phosphate-Citrate Buffer (C) and 0.5 mL of the appropriate 10 mM Substrate Solution ( D1-D4), which then thoroughly mixed and equilibrated to 30 °C with a thermoblock. […] The progress of the reactions was monitored by thin-layer chromatography (TLC) in a CHCl3:CH3OH (5:1) eluents system. […]

Bounds are passed on as bounds.

One may read the IC50 as the concentration that gives 50% inhibition. Read a high IC50 as weaker potency.

For the compound `OC[C@H]1O[C@@H](SCc2cn(CCCOc3cccc4cccnc34)nn2)[C@H](O)[C@@H](O)[C@H]1O` [Compound 64], the half-maximal inhibitory concentration (IC50) in the data set with HCT-116 cells and in the data set with MCF-7 cells was greater than 800 µM in each case. For the same compound, the “Hydrolysis in the presence of β-galactosidase” value in data set [1] is “did not undergo hydrolysis”.
